We go through 15 molecules from patent US10072014B2 (Janssen Pharmaceutica NV, priority 2014, dated 2018).

Where only a bound is given, the exact number is not on record here.

The target of one data set is T1, human mGlu2 receptor (Homo sapiens, UniProt Q14416).
T1 construct: expressed in transfected cells; host or cells: CHO cells
As to the kind of experiment: [35S]GTPγS binding assay, negative allosteric modulation of mGluR2. In kind it is biochemical. Conditions: for Emax: maximal % inhibition relative to the control glutamate response (EC80 glutamate), read-out: GTPγS-hmGluR2 anGT Emax; for IC50: membranes from CHO cells transfected with human mGlu2 receptor, glutamate 60 μM (~EC80), read-out: GTPγS-hmGluR2 anGT pIC50 (converted). The text has this:
The compounds provided in the present invention are negative allosteric modulators of mGluR2. These compounds appear to inhibit glutamate responses by binding to an allosteric site other than the glutamate binding site. The response of mGluR2 to a concentration of glutamate is decreased when compounds of Formula (I) are present. Compounds of Formula (I) are expected to have their effect substantially at mGluR2 by virtue of their ability to reduce the function of the receptor. The effects of negative allosteric modulators tested at mGluR2 using the [^35S]GTPγS binding assay method described below and which is suitable for the identification of such compounds, and more particularly the compounds according to Formula (I), are shown in Table 7.
1) [^35S]GTPγS Binding Assay
The [^35S]GTPγS binding assay is a functional membrane-based assay used to study G-protein coupled receptor (GPCR) function whereby incorporation of a non-hydrolysable form of GTP, [^35S]GTPγS (guanosine 5′-triphosphate, labelled with […] ^35S), is measured. The G-protein a subunit catalyzes the exchange of guanosine 5′-diphosphate (GDP) by guanosine triphosphate (GTP) and on activation of the GPCR by an agonist, [^35S]GTPγS, becomes incorporated and cannot be cleaved to continue the exchange cycle (Harper (1998) Current Protocols in Pharmacology 2.6.1-10, John Wiley & Sons, Inc.). […] Here we describe the use of the [^35S]GTPγS binding assay using membranes from cells transfected with the human mGlu2 receptor and adapted from Schaffhauser et al. (Molecular Pharmacology, 2003, […]) for the detection of the negative allosteric modulation (NAM) properties of the compounds of this invention.
CHO-cells were cultured to pre-confluence and stimulated with 5 mM butyrate for 24 h. Cells were then collected by scraping in PBS and cell suspension was centrifuged (10 min at 4000 RPM in benchtop centrifuge). Supernatant was discarded and pellet gently resuspended in 50 mM Tris-HCl, pH 7.4 by mixing with an Ultra Turrax homogenizer. The suspension was centrifuged at 12,400 RPM (Sorvall F14S-6x250Y) for 10 minutes and the supernatant discarded. The pellet was homogenized in 5 mM Tris-HCl, pH 7.4 using an Ultra Turrax homogenizer and centrifuged again (13,000 RPM, 20 min, 4° C.). The final pellet was resuspended in 50 mM Tris-HCl, pH 7.4 and stored at −80° C. in appropriate aliquots before use. Protein concentration was determined by the Bradford method (Bio-Rad, USA) with bovine serum albumin as standard.
[^35S]GTPγS Binding Assay
Measurement of mGluR2 negative allosteric modulatory activity of test compounds was performed as follows. Test compounds and glutamate were diluted in assay buffer containing 10 mM HEPES acid, 10 mM HEPES salt, pH 7.4, 100 mM NaCl, 3 mM MgCl2 and 10 μM GDP. Human mGlu2 receptor-containing membranes were thawed on ice and diluted in assay buffer supplemented with 18 μg/ml saponin. Membranes were pre-incubated with compound together with a predefined (˜EC80) concentration of glutamate (60 μM) for 30 min at 30° C. After addition of [^35S]GTPγS (f.c. 0.1 nM), assay mixtures were shaken briefly and further incubated to allow [^35S]GTPγS incorporation on activation (30 minutes, 30° C.). Final assay mixtures contained 7 μg of membrane protein in 10 mM HEPES acid, 10 mM HEPES salt, pH 7.4, 100 mM NaCl, 3 mM MgCl2, 10 μM GDP and 10 μg/ml saponin. Total reaction volume was 200 μl. Reactions were terminated by rapid filtration through Unifilter-96 GF/B plates (Perkin Elmer, Massachusetts, USA) using a 96-well filtermate universal harvester. Filters were washed 6 times with ice-cold 10 mM NaH2PO4/10 mM Na2HPO4, pH 7.4. Filters were then air-dried, and 30 μl of liquid scintillation cocktail (Microscint-O) was added to each well. Membrane-bound radioactivity was counted in a Topcount.
The concentration-response curves of representative compounds of the present invention were generated using the Lexis software interface (developed at J&J). […]
On the technique in general: Binding of GTPγS marks nucleotide exchange on a G protein.

Another data set relates to rats. As to the kind of experiment: Reversal of the effect of the mGluR2 PAM JNJ-42153605-induced inhibition of scopolamine-induced hyperlocomotion. Type of data set: in vivo. Conditions: Rattus norvegicus, PO, criterion for reversal: total distance >1500 cm, read-out: ED50 SCOP JNJ-42153605. Here is the method:
2) Reversal of the Effect of the mGluR2 PAM JNJ-42153605-induced Inhibition of Scopolamine-induced Hyperlocomotion Apparatus
Motor activity was measured in microprocessor-based motor activity arenas (closed gray PVC cylinders with a height of 39 cm and a diameter of 31 cm). Each arena was placed on an infrared LED (8×8 LEDs) lit box (white PVC squared box; 40×40 cm^2; height 12.5 cm. An infrared-sensitive tube camera and a white light source were mounted to the ceiling above the observation chamber to track the animal. The total distance traveled (cm) was recorded and analyzed using the Noldus Ethovision XT Video Tracking System (Version 7.0.418; Noldus, Wageningen, The Netherlands). The intensity of the light within the activity cages (measured in the centre at the level of the floor) ranged between 4 and 8 LUX.
The rats were pretreated with test compound or vehicle at 60 min before the start of the activity recordings and placed into individual cages. The rats were challenged with JNJ-42153605 (3-(cyclopropylmethyl)-7-(4-phenylpiperidin-1-yl)-8-(trifluoromethyl)-[1,2,4]triazolo[4,3-a]pyridine; WO2010/130424; Cid et al. J. Med. Chem. 2012, 55, 8770-8789) (20 mg/kg, i.v.) 30 min before the start of the activity recording combined with scopolamine (0.16 mg/kg, i.v.) just before the start of the activity measurements. Immediately after the injection of scopolamine, the rats were placed into the activity monitors and total distance traveled over the first 30 min was measured.
Solvent-pretreated Control Rats.
Animals receiving the combination of JNJ-42153605 and scopolamine (n=433) almost always traveled a distance of less than 1500 cm (<1500 cm) (only 2.5% of the control rats traveled a distance of more than 1500 cm (>1500 cm)). On the other hand, animals challenged with scopolamine alone (n=215) always traveled a total distance of more than 1500 cm (>1500 cm) and almost always (in 95.8% of the rats) a distance of more than 4400 cm (>4400 cm). […] For reversal of the inhibitory effect of JNJ-42153605 on the scopolamine-induced hyperlocomotion, the following all-or-none criteria were adopted: (1) reversal: total distance>1500 cm.

In another data set the test system is Wiga Wistar rats. The data set can be described thus: Reversal of LY-404039-induced decrease of palpebral opening in apomorphine-challenged rats. In kind it is in vivo. Conditions: Rattus norvegicus, PO, criterion: cumulative palpebral opening score >26, read-out: ED50 APO LY-404039. Here is the method: B) In Vivo Pharmacology 1) Reversal of LY-404039-induced Decrease of Palpebral Opening in Apomorphine-challenged Rats.
Male Wiga Wistar rats (Crl:WI; Charles River Germany; 220±40 g) were housed under standard laboratory conditions (21±2° C.; 50-65% relative humidity; light-dark cycle set at 12 h; lights on at 6.00 h) and fasted overnight prior to the start of the experiments (tap water remained available ad libitum). During the test period, they were housed in individual cages. Palpebral opening was scored every 5 min over the first hour after injection of apomorphine (1.0 mg/kg, i.v.) in animals either pretreated or not pretreated with LY-404039 (2.5 mg/kg, s.c.) at 1 h prior to the apomorphine injection. The animals were also pretreated with test compound or solvent at a predefined interval before apomorphine challenge. The score system was: (5) exophthalmos, (4) wide open, (3) open for three-quarters, (2) half open, (1) open for one-quarter, (0) closed. The scores for palpebral opening were cumulated over the 60-min observation period. A cumulative palpebral opening score>26 was selected for drug-induced reversal of the LY-404039-induced decrease of palpebral opening (occurrence in 3.2% of control animals pretreated with LY-404039 (n=154) versus in 99.5% of control rats not pretreated with LY-404039 (n=6335)). […]

T1 sequence (Q14416 19-872): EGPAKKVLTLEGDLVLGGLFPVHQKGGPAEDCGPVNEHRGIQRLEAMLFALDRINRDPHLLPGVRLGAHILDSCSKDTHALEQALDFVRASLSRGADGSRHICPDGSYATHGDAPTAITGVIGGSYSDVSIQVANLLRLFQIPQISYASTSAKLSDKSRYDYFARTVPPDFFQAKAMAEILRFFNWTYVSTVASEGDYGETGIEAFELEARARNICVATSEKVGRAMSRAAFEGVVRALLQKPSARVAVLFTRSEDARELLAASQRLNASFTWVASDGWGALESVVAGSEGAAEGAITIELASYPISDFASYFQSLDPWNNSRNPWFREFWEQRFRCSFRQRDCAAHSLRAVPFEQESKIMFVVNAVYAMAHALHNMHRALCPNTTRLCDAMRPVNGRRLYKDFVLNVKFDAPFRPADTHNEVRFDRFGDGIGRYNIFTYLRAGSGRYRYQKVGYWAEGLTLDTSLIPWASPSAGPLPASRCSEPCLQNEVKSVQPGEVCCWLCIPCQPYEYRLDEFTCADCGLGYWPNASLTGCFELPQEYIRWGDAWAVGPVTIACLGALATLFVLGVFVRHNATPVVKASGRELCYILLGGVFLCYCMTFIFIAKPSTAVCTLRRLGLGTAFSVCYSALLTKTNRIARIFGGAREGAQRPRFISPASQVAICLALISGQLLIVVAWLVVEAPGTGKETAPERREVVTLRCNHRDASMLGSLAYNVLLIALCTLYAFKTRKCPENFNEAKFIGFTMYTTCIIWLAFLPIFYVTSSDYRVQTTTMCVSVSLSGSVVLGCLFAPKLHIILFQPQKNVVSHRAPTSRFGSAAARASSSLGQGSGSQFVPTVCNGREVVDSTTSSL

A word on the Emax: it is the greatest response seen or fitted, relative to the assay's reference. As usually defined, the melting point is the temperature of the solid-liquid transition. Broadly, the ED50 is the midpoint of the dose-response relation. For `Cc1nc(C2CC2)[nH]c1-c1cnn2c1C(=O)N(c1ccc(C(F)(F)F)c(Cl)c1)C[C@@H]2C` [Compound 28], the melting point is 158.23 °C. Also, at human mGlu2 receptor, the Emax is 111% and the IC50 is 3.72 nM. Besides, the ED50 with rats is above 0.63 mg/kg.
`C[C@H]1CN(c2ccc(C(F)(F)F)c(Cl)c2)C(=O)c2c(-c3c[nH]c(-c4ccc(N)nc4)n3)cnn21` [Compound 33] had a melting point of 286.55 °C. Further, at human mGlu2 receptor, the Emax was 106% and the IC50 is 16.2 nM. In the data set with rats, the ED50 was above 0.63 mg/kg.
The matching figures for `C[C@H]1CN(c2ccc(C(F)(F)F)c(Cl)c2)C(=O)c2c(-c3c[nH]c(C(N)=O)n3)cnn21` [Compound 31]: 269.95 °C, 107%, 10.2 nM and above 0.63 mg/kg.
`Cc1nc(C2CC2)[nH]c1-c1cnn2c1C(=O)N(c1ccc(C(F)(F)F)cc1)C[C@@H]2C` [Compound 7]: on human mGlu2 receptor, the maximal response (Emax) was 106% and the IC50 was 31.6 nM. For the same molecule, the 50% effective dose (ED50) in the data set with rats was above 0.63 mg/kg.
In turn, `Cc1cc(N2C[C@H](C)n3ncc(-c4[nH]c(C5CC5)nc4C)c3C2=O)ccc1C(F)(F)F` [Compound 21] gave a melting point of 146.2 °C. At human mGlu2 receptor, the Emax stood at 108% and the IC50 is 5.75 nM. For the same molecule, the 50% effective dose (ED50) in the data set with rats was above 0.63 mg/kg.
The matching figures for `Cc1[nH]c(-c2ccc(N)nc2)nc1-c1cnn2c1C(=O)N(c1ccc(C(F)(F)F)cc1)C[C@@H]2C` [Compound 16]: 215.62 °C, 108%, 186 nM and above 0.63 mg/kg.
`Cc1[nH]c(-c2ccc(N)nc2)nc1-c1cnn2c1C(=O)N(c1ccc(C(F)(F)F)c(Cl)c1)C[C@@H]2C` [Compound 34]: the melting point was found to be 280.85 °C. For the same molecule, at human mGlu2 receptor, the Emax was 109% and the IC50 is 30.9 nM. The ED50 in the data set with rats was above 0.63 mg/kg.
The molecule `CC(C)c1nc(-c2cnn3c2C(=O)N(c2ccc(C(F)(F)F)c(Cl)c2)C[C@@H]3C)c[nH]1` [Compound 26] displayed a melting point of 160.38 °C. Also, at human mGlu2 receptor, the Emax was 111% and the IC50 is 2.69 nM. The ED50 in the data set on rats was 1.99 mg/kg.
In the case of `Cc1nc(-c2cnn3c2C(=O)N(c2ccc(C(F)(F)F)cc2)C[C@@H]3C)c[nH]1` [Compound 4], the melting point is 167.9 °C. At human mGlu2 receptor, the Emax amounted to 104% and the IC50 was 25.7 nM. The ED50 in the data set with rats was above 2.5 mg/kg.
The molecule `Cc1cc(N2C[C@H](C)n3ncc(-c4c[nH]c(-c5ccccn5)n4)c3C2=O)ccc1C(F)(F)F` [Compound 22] yielded a melting point of 140.5 °C. Further, on human mGlu2 receptor, the Emax is 110% and the IC50 was 16.2 nM. The ED50 with rats was above 0.63 mg/kg.
Molecule `Cc1nc(C)c(-c2cnn3c2C(=O)N(c2ccc(C(F)(F)F)c(Cl)c2)C[C@@H]3C)[nH]1.Cl` [Compound 30] yielded a melting point of 270.45 °C. Also, on human mGlu2 receptor, the Emax came to 109% and the IC50 was 6.31 nM. Moreover, the 50% effective dose (ED50) with rats is 1.99 mg/kg.
The molecule `C[C@H]1CN(c2ccc(C(F)(F)F)cc2)C(=O)c2c(-c3c[nH]c(-c4ccc(N)nc4)n3)cnn21` [Compound 11] displayed a melting point of 276.61 °C. Also, at human mGlu2 receptor, the Emax came to 109% and the IC50 was 55 nM. In the data set with rats, the ED50 is above 0.63 mg/kg.
`C[C@H]1CN(c2ccc(Cl)c(Cl)c2)C(=O)c2c(-c3c[nH]c(-c4ccccn4)n3)cnn21` [Compound 18]: the melting point turned out to be 278.31 °C. Further, on human mGlu2 receptor, the maximal response (Emax) stood at 110% and the IC50 is 9.12 nM. In the data set with rats, the ED50 was above 0.63 mg/kg.
In the case of `C[C@H]1CN(c2ccc(C(F)(F)F)c(Cl)c2)C(=O)c2c(-c3c[nH]c(C4CC4)n3)cnn21` [Compound 25], at human mGlu2 receptor, the Emax was found to be 106% and the IC50 is 2 nM. Further, the ED50 in the data set on Wiga Wistar rats came to 0.79 mg/kg. Moreover, the median effective dose (ED50) in the data set on rats is 0.726 mg/kg.
`Cc1[nH]c(-c2cccnc2)nc1-c1cnn2c1C(=O)N(c1ccc(C(F)(F)F)c(Cl)c1)C[C@@H]2C` [Compound 32] gave a melting point of 269.39 °C. Further, on human mGlu2 receptor, the Emax is 109% and the IC50 is 15.5 nM. Besides, the ED50 with rats was above 0.63 mg/kg.
